Columns and labels:
[1] = system: TGF-β stimulated renal tubular epithelial cells HK-2; assay: Fibrosis markers in TGF-β stimulated HK-2 cells (immunoblotting, qPCR); assay type: cell-based; details: different concentrations of chidamide
Description: Example 1 verified that HDAC1/2/3/10 can participate in renal fibrosis, and example 2 further explored the effect of chidamide on renal fibrosis in TGF-β stimulated renal tubular epithelial cells. In example 2, cells were treated by using different concentrations of chidamide and then stimulated by adding TGF-β, and the protein expression and mRNA levels of fibrosis markers were detected respectively by using immunoblotting and qPCR experiments.
In FIG. 2, (A) the effect of different concentrations of chidamide on protein expression of fibrosis markers α-SMA and Vimentin (Vim) in TGF-β stimulated HK-2 cells was detected by the immunoblotting experiment; (B-C) the statistical results of α-SMA and Vimentin in FIG. A in 3 biological duplications, Mean±SDs, Student's t-test, *: P<0.05; **: P<0.01; (D-E) the effect of different concentrations of chidamide on […] experiment in TGF-β stimulated HK-2 cells, and the statistical resultsare 3 technical duplications, Mean±SD, Student's t-test, *: P<0.05, **: P<0.01, ***: P<0.001, ****: P<0.0001.

[2] = system: PI3K/Akt signaling pathway; assay: PI3K/Akt signaling pathway in UUO mouse model (immunoblotting); assay type: in vivo
Text: (§1) The PI3K-Akt signaling pathway is an intracellular signal transduction pathway which responds to extracellular signals, promotes metabolism, proliferation, cell survival, growth and angiogenesis, and participates in pathophysiological processes of multiple diseases. […] The above experimental results all verify that chidamide can inhibit the PI3K/Akt signaling pathway.
(§2) In FIG. 7, (A) the effects of chidamide onprotein expression of p-PI3K, PI3K, p-Akt and Akt in TGF-β stimulated renal tubular epithelial cell HK-2 were detected by the immunoblotting experiment; (B-C) the statistical charts showingthe effect of chidamide onp-PI3K/PI3K and p-Akt/Akt ratios in TGF-β stimulated renal tubular epithelial cell HK-2, n=3, Mean±SDs, Student's t-test, *: P<0.05; (D) the effectof chidamide on protein expression of p-PI3K, PI3K, p-Akt and Akt in UUO mouse model was detected by the immunoblotting experiment (n=4); (E) the effect of chidamide on proein expression of autophagy markers of TGF-β stimulated renal tubular epithelial cell HK-2 was detected by the immunoblotting experiment; (F) the effect of chidamide on protein expression of autophagy markers as well as p-mTOR and mTOR in UUO mouse model was detected by the immunoblotting experiment (n=4).

UUO mice = assay: Renal fibrosis mouse model (UUO): renal morphology, renal function, collagen deposition, fibrosis markers; assay type: in vivo
Text: In this example, a renal fibrosis mouse model (UUO: Unilateral Uretera Obstruction, renal interstitial fibrosis model) was constructed through UUO surgery at the same time. On the 7th day after surgery, the protein expression of HDAC1/2/3/10 in test group (UUO) and control group (Sham) was detected respectively through immunoblotting and immunohistochemical tests.
In this example, mice were divided into 7 groups at random with 7 mice in each group, which were Sham group (sham), Sham+chidamide group (Sham-Chi 10 mg/kg/d), model group (UUO), UUO+Enacept positive control group (UUO-En 10 mg/kg/d), UUO+chidamide low-dose administration group (UUO-Chi 1 mg/kg/d), UUO+chidamide medium-dose administration group (UUO-Chi 5 mg/kg/d) and UUO+chidamide high-dose administration group (UUO-Chi 10 mg/kg/d), respectively. All drugs were administrated by gavage 3 days before modeling, once a day, until 7 days after surgery. Mice were weighed everyday after surgery, and then growth curves were plotted. After administration was ended, the mice were anesthetized, the eye sockets were removed and bloods were collected for the detection of serum creatinine (Scr) and urea nitrogen (BUN). At the same time, left and right kidneys were taken and then weighed after hydronephrosis was removed, so as to obtain the renal weight indexes of the obstructed kidneys in mice (kidney weight/mouse weight at the obstructed side). The photos were taken.
In FIG. 3, (A) the weight growth curve of mice verified the effect of UUO modeling and intragastric administration of chidamide on mouse weight, n=7, Mean±SDs, Student's t-test, ns: not significant; (B) the renal weight index change of mice (the statistical chart above, n=4, Mean±SDs, Student's t-test, *: P<0.05, **: P<0.01, ****: P<0.0001, ns: not significant) and renal tissue in vitro photos (below) verified the effect of chidamide on renal morphological changes of UUO mice; (C-D) mouse creatinine (C) and urea nitrogen (D) changes verified the effect of chidamide on renal functions of UUO mice, n=5-6, Mean±SDs, Student's t-test, *: P<0.05, **: P<0.01, ***: P<0.001, ns: not significant.
In the above constructed UUO mouse model of this example, the effect of chidamide on renal interstitial collagen fiber deposition was detected further by Masson staining.
In FIG. 4, (A-B) the deposition of renal interstitial collagen fibers was detected after UUO modeling and chidamide was administrated, (A) a typical picture for Masson staining; (B) the statistical results of Masson staining area proportion, n=6, Mean±SDs, Student's t-test, *: P<0.05, **: P<0.01, ****: P<0.0001, ns: not significant.
In this example, the improvement effect of chidamide on UUO renal fibrosis was further detected. In the above constructed UUO mouse model of this example, the effect of chidamide on protein expression of renal fibrosis markers was detected respectively by immunohistochemistry and immunoblotting experiments, and the change in fibrosis marker mRNA was detected by the qPCR experiment. […]

[3] = system: TGF-β stimulated renal tubular epithelial cells HK-2; assay: PI3K inhibitor LY 294002 and chidamide on fibrosis markers Collagen I and α-SMA in TGF-β stimulated HK-2 (immunoblotting); assay type: cell-based; details: FIG. 8B
Text: Subsequently, this example further investigated the change of chidamide on fibrosis markers after LY 294002 treatment was used in TGF-β stimulated renal tubular epithelial cells HK-2. […] The above experimental results initially verify that chidamide is very likely to inhibit the progression of renal fibrosis through the PI3K/Akt signaling pathway.
In FIG. 8, (A) the effect of different concentrations of LY 294002 (LY) on protein expression of fibrosis markers Collagen I and α-SMA in TGF-β stimulated renal tubular epithelial cells HK-2 was detected by the immunoblotting experiment; (B) the effect of LY 294002 (LY) on fibrosis marker Collagen I and α-SMA protein expression by chidamide was detected in TGF-β stimulated renal tubular epithelial cells HK-2 by the immunoblotting experiment.

[4] = system: PI3K/Akt signaling pathway; assay: PI3K/Akt signaling pathway in TGF-β stimulated HK-2 cells (immunoblotting); assay type: cell-based
Text: as §1, §2

For `Nc1cc(F)ccc1NC(=O)c1ccc(CNC(=O)/C=C/c2cccnc2)cc1` [chidamide, N-(2-amino-4-fluorophenyl)-4-[N-[(E)-3-(3-pyridine)acryloyl]aminomethyl]benzamide], the “protein expression of fibrosis markers (α-SMA, Vimentin)” value ([1]; immunoblotting, FIG. 2A-C) was “significantly decreased”, the “mRNA level of fibrosis markers (α-SMA, Vimentin)” value ([1]; qPCR, FIG. 2D-E) was “significantly decreased” and the p-Akt/Akt ratio ([2]; FIG. 7D) was “significantly reduced”. For the same molecule, the p-PI3K/PI3K ratio ([2]; FIG. 7D) was “significantly reduced”, the “autophagy flow (autophagy markers)” value ([2]; FIG. 7F) was “restore an autophagy flow” and the p-mTOR/mTOR ratio ([2]; FIG. 7F) was “reduce”. For the same molecule, the “serum creatinine (Scr)” value (UUO mice; UUO mice after chidamide administration, FIG. 3C) was “obviously fall back”, the “urea nitrogen (BUN)” value (UUO mice; UUO mice after chidamide administration, FIG. 3D) was “obviously fall back” and the “renal interstitial collagen fiber deposition” value (UUO mice; UUO mice, Masson staining, FIG. 4) was “significantly improved”. For the same molecule, the “protein expression of renal fibrosis markers” value (UUO mice; UUO mouse renal tissues, immunohistochemistry and immunoblotting, FIGS. 5A-E) was “significantly fall back”, the “mRNA of renal fibrosis markers” value (UUO mice; UUO mouse renal tissues, qPCR, FIGS. 5F-I) was “significantly fall back” and the “ureteral dilation degree and renal tissue squeezing degree” value (UUO mice; UUO+chidamide group compared with UUO group, FIG. 3B) was “less than those in corresponding UUO group”. For the same molecule, the “obstruction renal weight index (kidney weight/mouse weight at the obstructed side)” value (UUO mice; UUO+chidamide group compared with UUO group, gavage, FIG. 3B) was “significantly decreased”, the “weight growth curve of mice” value (UUO mice; intragastric administration at various doses (1, 5, 10 mg/kg/d), once a day, 3 days before modeling until 7 days after surgery, FIG. 3A) was “did not affect the growth of mice” and the “expression of fibrosis markers Collagen I and α-SMA” value ([3]; TGF-β stimulated HK-2, chidamide with PI3K inhibitor LY 294002 used simultaneously) was “cannot affect the expression of fibrosis markers any more”. For the same molecule, the “protein expression of fibrosis markers Collagen I and α-SMA” value ([3]; TGF-β stimulated HK-2, used alone) was “can inhibit”, the “autophagy flow (autophagy markers)” value ([4]; FIG. 7E) was “restore an autophagy flow” and the p-Akt/Akt ratio ([4]; FIGS. 7A-C) was “significantly reduced”. For the same molecule, the p-PI3K/PI3K ratio ([4]; FIGS. 7A-C) was “significantly reduced”.

From patent US12453723B2, “Use of chidamide in preparing drug for treating renal fibrosis” (THE SECOND AFFILIATED HOSPITAL OF SOOCHOW UNIVERSITY, priority 2023, dated 2025)
